What was measured:
[1] = test system: Ba/F3 KIF5B-RET^G810R subcutaneous tumour; experiment: In vivo efficacy in BALB/c Nude mouse model with Ba/F3 KIF5B-RET^G810R subcutaneous tumour; details: 30 mg/kg, PO, BID × 12; for VP-1 (mm^3, mean ± SEM): tumour volume one day before administration: baseline of the group
[2] = test system: Ba/F3 KIF5B-RET^G810S cells; experiment: Inhibition of cell proliferation, Cell Titer Glo, Ba/F3 KIF5B-RET^G810S; format: cell-based
Description: (§1) Experimental purpose: To evaluate the inhibitory effect of the compound on proliferation of three BaF3 cell lines (Ba/F3 KIF5B-RET^G810R, Ba/F3 KIF5B-RET^G810S, Ba/F3 KIF5B-RET^G810C) in vitro.
(§2) Experimental method: Three Ba/F3 cell lines (Ba/F3 KIF5B-RET^G810R, Ba/F3 KIF5B-RET^G810S Ba/F3 KIF5B-RET^G810C) in logarithmic phase were respectively collected and inoculated into 96-well plates, with 2000 cells/95 μl/well. […] In addition, negative control wells (without the test compound) and blank control wells (without cells) were set.
(§3) the inhibition rate % was fitted using the four-parameter equation “log(agonist) vs response-variable slope (four parameters)” in GraphPad Prism 6.0, and the IC50 was obtained by calculation.

RET-G810S enzyme = RET-G810S enzyme (Homo sapiens (Human), UniProt P07949, G810S); experiment: RET inhibition experiment, HTRF KinEASE-TK kit, RET-G810S; format: biochemical
RET-G810C enzyme = RET-G810C enzyme (Homo sapiens (Human), UniProt P07949, G810C); experiment: RET inhibition experiment, HTRF KinEASE-TK kit, RET-G810C; format: biochemical
RET-G810R enzyme = RET-G810R enzyme (Homo sapiens (Human), UniProt P07949, G810R); experiment: RET inhibition experiment, HTRF KinEASE-TK kit, RET-G810R; format: biochemical
[3] = test system: Ba/F3 KIF5B-RET^G810R cells; experiment: Inhibition of cell proliferation, Cell Titer Glo, Ba/F3 KIF5B-RET^G810R; format: cell-based
Description: as §1, §2, §3

[4] = test system: Ba/F3 KIF5B-RET^G810C cells; experiment: Inhibition of cell proliferation, Cell Titer Glo, Ba/F3 KIF5B-RET^G810C; format: cell-based
Description: as §1, §2, §3

[5] = Mus musculus, BaF3, 72 h, 3 days culture, Cell Titer Glo

Sequence of RET-G810S enzyme (P07949 29-1114 G810S): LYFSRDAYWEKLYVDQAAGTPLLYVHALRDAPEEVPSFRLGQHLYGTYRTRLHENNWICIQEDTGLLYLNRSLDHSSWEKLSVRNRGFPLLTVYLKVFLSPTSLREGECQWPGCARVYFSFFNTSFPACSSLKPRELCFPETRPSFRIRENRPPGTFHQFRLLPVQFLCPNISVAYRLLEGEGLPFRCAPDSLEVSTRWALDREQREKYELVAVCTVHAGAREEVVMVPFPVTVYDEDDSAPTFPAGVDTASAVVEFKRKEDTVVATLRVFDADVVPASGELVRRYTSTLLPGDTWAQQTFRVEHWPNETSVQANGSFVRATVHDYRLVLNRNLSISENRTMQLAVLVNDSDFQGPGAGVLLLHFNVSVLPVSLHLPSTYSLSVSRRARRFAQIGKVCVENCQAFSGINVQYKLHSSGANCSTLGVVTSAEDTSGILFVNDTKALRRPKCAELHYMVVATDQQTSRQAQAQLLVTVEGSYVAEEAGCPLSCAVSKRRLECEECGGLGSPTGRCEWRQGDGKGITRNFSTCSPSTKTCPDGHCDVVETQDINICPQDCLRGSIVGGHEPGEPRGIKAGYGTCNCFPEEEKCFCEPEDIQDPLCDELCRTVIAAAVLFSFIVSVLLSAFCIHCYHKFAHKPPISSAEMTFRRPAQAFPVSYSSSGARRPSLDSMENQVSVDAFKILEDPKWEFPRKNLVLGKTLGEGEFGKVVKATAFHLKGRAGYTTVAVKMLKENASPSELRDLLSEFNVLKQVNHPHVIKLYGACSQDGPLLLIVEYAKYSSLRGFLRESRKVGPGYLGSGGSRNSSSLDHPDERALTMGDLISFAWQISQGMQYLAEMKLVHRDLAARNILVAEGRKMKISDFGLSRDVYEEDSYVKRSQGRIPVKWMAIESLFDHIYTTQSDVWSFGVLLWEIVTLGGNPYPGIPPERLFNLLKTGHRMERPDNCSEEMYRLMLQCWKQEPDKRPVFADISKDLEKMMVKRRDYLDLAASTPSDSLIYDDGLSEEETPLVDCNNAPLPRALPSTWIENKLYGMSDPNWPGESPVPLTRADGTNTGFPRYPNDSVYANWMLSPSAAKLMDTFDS
Sequence of RET-G810R enzyme (P07949 29-1114 G810R): as the sequence (P07949 29-1114 G810S) above, with S782R counted along it
Sequence of RET-G810C enzyme (P07949 29-1114 G810C): as the sequence (P07949 29-1114 G810S) above, with S782C counted along it

CO[C@]1(C(=O)N[C@@H](C)c2ccc(-n3cc(F)cn3)nc2)CC[C@H](c2nc(C)cc(Nc3cc(C)[nH]n3)n2)CC1 [BLU-667, Pralsetinib]
TGI (%) tumour growth inhibition rate [1]: 29.78% | VP12 (mm^3, mean ± SEM): tumour volume on Day 12 of administration [1]: 552.89 ± 29.7 mm^3 | VP-1 (mm^3, mean ± SEM): tumour volume one day before administration [1]: 101.82 ± 5.93 mm^3

Cc1cc(Nc2cc(C)[nH]n2)nc(-c2ccc(N3CC4CC(C3)N4Cc3ccc(-n4cc(F)cn4)nc3)nc2)n1.O=C(O)/C=C/C(=O)O [Compound 1-A, Fumarate of 2-(6-(6-((6-(4-fluoro-1H-pyrazol-1-yl)pyridin-3-yl)methyl)-3,6-diazabicyclo [3.1.1]heptan-3-yl)pyridin-3-yl)-6-methyl-N-(5-methyl-1H-pyrazol-3-yl) pyrimidin-4-amine]
IC50 [2, 5]: 20.2 ± 0.35 nM | Inhibiting the proliferation of Ba/F3 KIF5B-RET^G810S cells (in words) ([2]; comparison with controls): superior to BLU-667 and Loxo-292 | IC50 (RET-G810S enzyme; Table 7, value ± spread): 2.69 ± 0.56 nM | Inhibition on RET-G810S enzyme (in words) (RET-G810S enzyme; summary of tables): remarkably inhibited | TGI (%) tumour growth inhibition rate [1]: 72.37% | VP12 (mm^3, mean ± SEM): tumour volume on Day 12 of administration [1]: 278.53 ± 51.13 mm^3 | VP-1 (mm^3, mean ± SEM): tumour volume one day before administration [1]: 101.08 ± 4.75 mm^3 | IC50 (RET-G810C enzyme; Table 7, value ± spread): 53.2 ± 10.7 nM | Inhibition on RET-G810C enzyme (in words) (RET-G810C enzyme; summary of tables): remarkably inhibited | IC50 (RET-G810R enzyme; Table 7, value ± spread): 19.6 ± 0.67 nM | Inhibition on RET-G810R enzyme (in words) (RET-G810R enzyme; summary of tables): remarkably inhibited | IC50 [3, 5]: 26.3 ± 5.76 nM | Inhibiting the proliferation of Ba/F3 KIF5B-RET^G810R cells (in words) ([3]; comparison with controls): superior to BLU-667 and Loxo-292 | IC50 [4, 5]: 65.3 ± 1 nM | Inhibiting the proliferation of Ba/F3 KIF5B-RET^G810C cells (in words) ([4]; comparison with controls): superior to BLU-667 and Loxo-292

Cc1cc(Nc2cc(C)[nH]n2)nc(-c2ccc(N3CC4CC(C3)N4Cc3ccc(-n4cc(C)c(C)n4)nc3)nc2)n1 [Compound 12]
Inhibition rate on RET-G810S (%) (RET-G810S enzyme; compound concentration 300 nM): 99.19 ± 0.55% | Inhibition rate on RET-G810C (%) (RET-G810C enzyme; compound concentration 300 nM): 69.10 ± 5.56% | Inhibition rate on RET-G810R (%) (RET-G810R enzyme; compound concentration 300 nM): 69.44 ± 0.31%

Cc1cc(Nc2cc(C)[nH]n2)nc(-c2ccc(N3CC4CC(C3)N4Cc3ccc(-n4cc(F)cn4)nc3)nc2)n1 [Compound 18]
IC50 (RET-G810S enzyme; Table 4): 15.9 nM | IC50 (RET-G810C enzyme; Table 6): 36.3 nM | IC50 (RET-G810R enzyme; Table 2): 132 nM

Cc1cc(Nc2cc(C)[nH]n2)nc(-c2ccc(N3CC4CC(C3)N4Cc3cnc(-n4cc(F)cn4)cn3)nc2)n1 [Compound 31, 2-(6-(6-((5-(4-fluoro-1H-pyrazol-1-yl)pyrazin-2-yl)methyl)-3,6-diazabicyclo [3.1.1]hept-3-yl)pyridin-3-yl)-6-methyl-N-(5-methyl-1H-pyrazol-3-yl) pyrimidin-4-amine]
inhibition at 0.3 µM (RET-G810S enzyme; compound concentration 300 nM, read-out: Inhibition rate on RET-G810S (%)): 99.69 ± 0.14% | inhibition at 0.3 µM (RET-G810C enzyme; compound concentration 300 nM, read-out: Inhibition rate on RET-G810C (%)): 74.1 ± 1.28%

COc1ccc(CN2C3CC2CN(c2ccc(-c4cc(OCC(C)(C)O)cn5ncc(C#N)c45)cn2)C3)cn1 [LOXO-292, Selpercatinib]
TGI (%) tumour growth inhibition rate [1]: 2.69% | VP12 (mm^3, mean ± SEM): tumour volume on Day 12 of administration [1]: 725.55 ± 54.84 mm^3 | VP-1 (mm^3, mean ± SEM): tumour volume one day before administration [1]: 100.47 ± 4.52 mm^3
